Assay results published in patent US11999739B2, “Antimicrobials methods of making and using the same” (BIOVERSYS AG, priority 2016, dated 2024).

Key:
[1] = tested on: Staphylococcus aureus (S. aureus) 11540 strain; test: Standard microdilution MIC assay, S. aureus; format: cell-based
In short: (§1)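 MICs obtained by CLSI-standard microdilution, quality-controlled with reference strains in parallel. Values reported as + or − relative to a 16 micrograms/mL cutoff.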

[2] = tested on: Escherichia coli strain ATCC25922; test: Standard microdilution MIC assay, E. coli; format: cell-based
In short: as §1

How did the MIC [1] turn out when `COC[C@H](N)CCCc1cc(OC(F)(F)F)c(F)c(-c2cc3cn(-c4ccc(CN[C@H](CCNC(C)=N)C5CC5)cc4)c(=O)nc3[nH]2)c1` [Compound 223] was run?
The MIC was at most 16 µg/mL.

And the MIC [2]?
Its MIC is at most 16 µg/mL.

Which MIC [1] does the source give for `COC[C@H](N)CCCc1cc(-c2cc3cn(-c4ccc(CN[C@H](CCNC(C)=N)C5CC5)cc4)c(=O)nc3[nH]2)c(F)c(C(F)(F)F)c1` [Compound 224] here?
The MIC was at most 16 µg/mL.

What about the MIC [2] of the same molecule?
The MIC was at most 16 µg/mL.

`CC(=N)NCC[C@@H]1CCC[C@@H](c2ccc(-n3cc4cc(-c5cc(CCC[C@@H](N)CF)cc(C(F)(F)F)c5F)[nH]c4nc3=O)cc2OC(F)(F)F)N1` [Compound 225] was tested. Which MIC [1] did it give?
Its MIC is at most 16 µg/mL.

What about the MIC [2] of the same molecule?
The MIC was at most 16 µg/mL.

Which MIC [1] does the source give for `CC(=N)NCC[C@@H]1CCC[C@@H](c2ccc(-n3cc4cc(-c5cc(CCC[C@@H]6COCCN6)cc(Cl)c5F)[nH]c4nc3=O)cc2)N1` [Compound 226] here?
The MIC was at most 16 µg/mL.

What about the MIC [2] of the same molecule?
The MIC was at most 16 µg/mL.

What does the source list for `CC(=N)NCC[C@@H]1CCC[C@@H](c2ccc(-n3cc4cc(-c5cc(CCC[C@@H]6COCC(=O)N6)cc(Cl)c5F)[nH]c4nc3=O)cc2)N1` [Compound 227]?
MIC [1]: ≤ 16 µg/mL; MIC [2]: ≤ 16 µg/mL

Which MIC [1] does the source give for `CC(=N)NCC[C@@H]1CCC[C@@H](c2ccc(-n3cc4cc(-c5cc(CCC[C@@H](N)C6CC6)cc(C(F)(F)F)c5F)[nH]c4nc3=O)cc2F)N1` [Compound 228] here?
The MIC was at most 16 µg/mL.

What about the MIC [2] of the same molecule?
Its MIC is at most 16 µg/mL.

Which results are given for `CC(=N)NCC[C@@H]1CCC[C@@H](c2ccc(-n3cc4cc(-c5cc(CCC[C@@H](N)C6CC6)cc(C(F)(F)F)c5F)[nH]c4nc3=O)cc2OC(F)(F)F)N1` [Compound 229]?
MIC [1]: ≤ 16 µg/mL; MIC [2]: ≤ 16 µg/mL

Which results are given for `CC(=N)NCC[C@@H](NCc1ccc(-n2cc3cc(-c4cc(CCC[C@@H](N)CF)cc(C(F)(F)F)c4F)[nH]c3nc2=O)cc1)C1CC1` [Compound 230]?
MIC [1]: ≤ 16 µg/mL; MIC [2]: ≤ 16 µg/mL

For `CC(=N)NCC[C@@H]1CCC[C@@H](c2ccc(-n3cc4cc(-c5cc(CCC[C@@H](N)CO)cc(OC(F)(F)F)c5F)[nH]c4nc3=O)cc2OC(F)(F)F)N1` [Compound 231], which MIC [1] is on record?
Its MIC is at most 16 µg/mL.

What about the MIC [2] of the same molecule?
Its MIC is at most 16 µg/mL.

With `CC(=N)NCC[C@@H]1CCC[C@@H](c2ccc(-n3cc4cc(-c5cc(CCC[C@H](C)N)cc(Cl)c5F)[nH]c4nc3=O)cc2C)N1` [Compound 232] as the molecule, how does the MIC [1] read?
Its MIC is at most 16 µg/mL.

What about the MIC [2] of the same molecule?
The MIC was at most 16 µg/mL.

For `COC[C@H](N)CCCc1cc(OC(F)(F)F)c(F)c(-c2cc3cn(-c4ccc([C@@H]5CCC[C@@H](CCNC(C)=N)N5)c(OC(F)(F)F)c4)c(=O)nc3[nH]2)c1` [Compound 233], which MIC [1] is on record?
Its MIC is at most 16 µg/mL.

And the MIC [2]?
Its MIC is at most 16 µg/mL.

How did the MIC [1] turn out when `COc1cc(-n2cc3cc(-c4cc(CCC[C@@H](N)C5CC5)cc(OC(F)(F)F)c4F)[nH]c3nc2=O)ccc1[C@@H]1CCC[C@@H](CCNC(C)=N)N1` [Compound 234] was run?
The MIC was at most 16 µg/mL.

And the MIC [2]?
The MIC was at most 16 µg/mL.

For `COc1cc(-n2cc3cc(-c4cc(CCC[C@@H](N)C5CC5)cc(C(F)(F)F)c4F)[nH]c3nc2=O)ccc1[C@@H]1CCC[C@@H](CCNC(C)=N)N1` [Compound 235], which MIC [1] is on record?
Its MIC is at most 16 µg/mL.

And the MIC [2]?
Its MIC is at most 16 µg/mL.

`CC(=N)NCC[C@@H]1CCC[C@@H](c2ccc(-n3cc4cc(-c5cc(CCC[C@@H](N)CF)cc(OC(F)(F)F)c5F)[nH]c4nc3=O)cc2)N1` [Compound 236] was tested. Which MIC [1] did it give?
The MIC was at most 16 µg/mL.

And the MIC [2]?
The MIC was at most 16 µg/mL.

How did the MIC [1] turn out when `COc1cc(-n2cc3cc(-c4cc(CCC[C@@H](N)CF)cc(C(F)(F)F)c4F)[nH]c3nc2=O)ccc1[C@@H]1CCC[C@@H](CCNC(C)=N)N1` [Compound 237] was run?
Its MIC is at most 16 µg/mL.

What about the MIC [2] of the same molecule?
Its MIC is at most 16 µg/mL.

Which results are given for `COC[C@H](N)CCCc1cc(OC(F)(F)F)c(F)c(-c2cc3cn(-c4ccc([C@@H]5CCC[C@@H](CCNC(C)=N)N5)c(C)c4)c(=O)nc3[nH]2)c1` [Compound 238]?
MIC [1]: ≤ 16 µg/mL; MIC [2]: ≤ 16 µg/mL

Which results are given for `CC(=N)NCC[C@@H]1CCC[C@@H](c2ccc(-n3cc4cc(-c5cc(CCC[C@@H](N)C6CC6)cc(Cl)c5F)[nH]c4nc3=O)cc2C)N1` [Compound 239]?
MIC [1]: ≤ 16 µg/mL; MIC [2]: ≤ 16 µg/mL

How did the MIC [1] turn out when `CSc1cc(-n2cc3cc(-c4cc(CCC[C@H](C)N)cc(Cl)c4F)[nH]c3nc2=O)cc(F)c1[C@@H]1CCC[C@@H](CCNC(C)=N)N1` [Compound 240] was run?
The MIC was at most 16 µg/mL.

What about the MIC [2] of the same molecule?
The MIC was at most 16 µg/mL.

Which MIC [1] does the source give for `COC[C@H](N)CCCc1cc(OC(F)(F)F)c(F)c(-c2cc3cn(-c4cc(F)c([C@@H]5CCC[C@@H](CCNC(C)=N)N5)c(SC)c4)c(=O)nc3[nH]2)c1` [Compound 241] here?
The MIC was at most 16 µg/mL.

And the MIC [2]?
The MIC was at most 16 µg/mL.

What does the source list for `CSc1cc(-n2cc3cc(-c4cc(CCC[C@@H](N)C5CC5)cc(OC(F)(F)F)c4F)[nH]c3nc2=O)cc(F)c1[C@@H]1CCC[C@@H](CCNC(C)=N)N1` [Compound 242]?
MIC [1]: ≤ 16 µg/mL; MIC [2]: ≤ 16 µg/mL

How did the MIC [1] turn out when `COc1cc(-n2cc3cc(-c4cc(CCC[C@@H](N)C5CC5)cc(C(F)(F)F)c4)[nH]c3nc2=O)ccc1[C@@H]1CCC[C@@H](CCNC(C)=N)N1` [Compound 243] was run?
Its MIC is at most 16 µg/mL.

And the MIC [2]?
Its MIC is at most 16 µg/mL.

Which MIC [1] does the source give for `C=C[C@H](N)CCCc1cc(Cl)c(F)c(-c2cc3cn(-c4ccc([C@@H]5CCC[C@@H](CCNC(C)=N)N5)c(OC)c4)c(=O)nc3[nH]2)c1` [Compound 244] here?
The MIC was at most 16 µg/mL.

And the MIC [2]?
The MIC was at most 16 µg/mL.

`CC(=N)NCC[C@@H]1CCC[C@@H](c2ccc(-n3cc4cc(-c5cc(CCC[C@@H]6COCCN6)cc(Cl)c5F)[nH]c4nc3=O)cc2F)N1` [Compound 245] was tested. Which MIC [1] did it give?
The MIC was at most 16 µg/mL.

And the MIC [2]?
Its MIC is at most 16 µg/mL.

`C=C[C@H](N)CCCc1cc(Cl)c(F)c(-c2cc3cn(-c4cc(F)c([C@@H]5CCC[C@@H](CCNC(C)=N)N5)c(F)c4)c(=O)nc3[nH]2)c1` [Compound 246] was tested. Which MIC [1] did it give?
The MIC was at most 16 µg/mL.

And the MIC [2]?
Its MIC is at most 16 µg/mL.

How did the MIC [1] turn out when `CC(=N)NCC[C@@H]1CCC[C@@H](c2c(F)cc(-n3cc4cc(-c5cc(CCC[C@@H](N)C6CC6)cc(Cl)c5F)[nH]c4nc3=O)cc2F)N1` [Compound 247] was run?
Its MIC is at most 16 µg/mL.

What about the MIC [2] of the same molecule?
Its MIC is at most 16 µg/mL.

For `CC(=N)NCC[C@@H]1CCC[C@@H](c2ccc(-n3cc4cc(-c5cc(CCC[C@@H](N)C6CC6)cc(Cl)c5F)[nH]c4nc3=O)cn2)N1` [Compound 248], which MIC [1] is on record?
Its MIC is at most 16 µg/mL.

And the MIC [2]?
The MIC was at most 16 µg/mL.

Which MIC [1] does the source give for `CSc1cc(-n2cc3cc(-c4cc(CCC[C@@H](N)C5CC5)cc(C(F)(F)F)c4)[nH]c3nc2=O)ccc1[C@@H]1CCC[C@@H](CCNC(C)=N)N1` [Compound 250] here?
The MIC was at most 16 µg/mL.

What about the MIC [2] of the same molecule?
The MIC was at most 16 µg/mL.

Which MIC [1] does the source give for `CSc1cc(-n2cc3cc(-c4cc(CCC[C@@H](N)C5CC5)cc(C(F)(F)F)c4F)[nH]c3nc2=O)ccc1[C@@H]1CCC[C@@H](CCNC(C)=N)N1` [Compound 251] here?
The MIC was at most 16 µg/mL.

What about the MIC [2] of the same molecule?
Its MIC is at most 16 µg/mL.

Which MIC [1] does the source give for `CSc1cc(-n2cc3cc(-c4cc(CCC[C@@H](N)C5CC5)cc(OC(F)(F)F)c4F)[nH]c3nc2=O)ccc1[C@@H]1CCC[C@@H](CCNC(C)=N)N1` [Compound 252] here?
The MIC was at most 16 µg/mL.

And the MIC [2]?
Its MIC is at most 16 µg/mL.

Which results are given for `CC(=N)N[C@@H](C)C[C@@H]1CCC[C@@H](c2ccc(-n3cc4cc(-c5cc(CCC[C@H](C)N)cc(Cl)c5F)[nH]c4nc3=O)cc2)N1` [Compound 253]?
MIC [1]: ≤ 16 µg/mL; MIC [2]: ≤ 16 µg/mL

What does the source list for `CSc1cc(-n2cc3cc(-c4cc(CCC[C@@H](N)CF)cc(C(F)(F)F)c4F)[nH]c3nc2=O)ccc1[C@@H]1CCC[C@@H](CCNC(C)=N)N1` [Compound 255]?
MIC [1]: ≤ 16 µg/mL; MIC [2]: ≤ 16 µg/mL

`CC(=N)N[C@@H](C)C[C@@H]1CCC[C@@H](c2ccc(-n3cc4cc(-c5cc(CCC[C@@H](N)C6CC6)cc(Cl)c5F)[nH]c4nc3=O)cc2)N1` [Compound 256] was tested. Which MIC [1] did it give?
The MIC was at most 16 µg/mL.

And the MIC [2]?
Its MIC is at most 16 µg/mL.

For `CC(=N)N[C@H](C)C[C@@H]1CCC[C@@H](c2ccc(-n3cc4cc(-c5cc(CCC[C@@H](N)C6CC6)cc(Cl)c5F)[nH]c4nc3=O)cc2)N1` [Compound 257], which MIC [1] is on record?
The MIC was at most 16 µg/mL.

What about the MIC [2] of the same molecule?
Its MIC is at most 16 µg/mL.
